Measured values from patent EP0054512A2, “Cephalosporin esters, process for their preparation and pharmaceutical compositions containing them” (CIBA-GEIGY AG, priority 1980, dated 1982).

Tested on: Escherichia coli, Proteus spp. und anderen
Assay: Systemic gram-negative infection in the mouse, oral administration
Design: species or system Maus
Conditions: in vivo, oral administration to the mouse, systemic gram-negative infections, range across pathogens
Excerpt: Die Verbindungen der Formel I, worin Am eine freie Aminogruppe ist und ihre pharmazeutisch verwendbaren, nichttoxischen Salze sind wertvolle, antibiotisch wirksame Substanzen, die insbesondere als antibakterielle Antibiotika verwendet werden können.

CCOC(=O)OC(C)OC(=O)C1=CCS[C@@H]2[C@H](NC(=O)/C(=N\OC)c3csc(N)n3)C(=O)N12 (stereo partly shown) [7ß-[2-(2-Amino-4-thiazolyl)-2-methoxyiminoacetamido]-3-cephem-4-carbonsäure-1-äthoxycarbonyloxyäthylester]
ED50: 0.3 to 150 mg/kg
